Results: US6063778A, “Cephalosporin derivatives and processes for the preparation thereof” (Il-Dong Pharm. Co., Ltd., priority 1995, dated 2000)
Converted amounts (≈) assume the structure as drawn. Read-outs that look alike come from different tables or passages of the source.

Assays:
[1] = test system: Pseudomonas aeruginosa 1771; experiment: MIC by agar dilution, in vitro activity test; assay type: cell-based; conditions: 37° C., 18 to 20 hours, read-out: Minimal Inhibitory Concentration (MIC)
Experimental: These MIC values were determined by agar dilution method: that is, two-fold dilutions of each of the test compounds were made and dispersed in a Mueller-Hinton Broth medium.

Salmonella typhimurium = experiment: MIC by agar dilution, in vitro activity test; assay type: cell-based; conditions: Salmonella enterica, 37° C., 18 to 20 hours, read-out: Minimal Inhibitory Concentration (MIC)
Experimental: (§1) These MIC values were determined by agar dilution method: that is, two-fold dilutions of each of the test compounds were made and dispersed in a Mueller-Hinton Broth medium. Standard test strain which had the 10^6 CFU per ml was inoculated on the medium, and was incubated at 37° C. for 18 to 20 hours.

Escherichia coli DC 2 = experiment: MIC by agar dilution, in vitro activity test; assay type: cell-based; conditions: DC2, 37° C., 18 to 20 hours, read-out: Minimal Inhibitory Concentration (MIC)
Experimental: as §1

[2] = test system: Pseudomonas aeruginosa 1771M; experiment: MIC by agar dilution, in vitro activity test; assay type: cell-based; conditions: 20 h, read-out: Minimal Inhibitory Concentration (MIC)
Experimental: as §1

[3] = test system: Staphylococcus aureus SG511; experiment: MIC by agar dilution, in vitro activity test; assay type: cell-based; conditions: 37° C., 18 to 20 hours, read-out: Minimal Inhibitory Concentration (MIC)
Experimental: as §1

Escherichia coli TEM = experiment: MIC by agar dilution, in vitro activity test; assay type: cell-based; conditions: 20 h, read-out: Minimal Inhibitory Concentration (MIC)
Experimental: as §1

[4] = test system: Klebsiella aerogenes 1522E; experiment: MIC by agar dilution, in vitro activity test; assay type: cell-based; conditions: Klebsiella aerogenes 1522E; agar dilution, 37° C., 18 to 20 hours; read-out: Minimal Inhibitory Concentration (MIC)
Experimental: as §1

Escherichia coli 078 = experiment: MIC by agar dilution, in vitro activity test; assay type: cell-based; conditions: 37° C., 18 to 20 hours, read-out: Minimal Inhibitory Concentration (MIC)
Experimental: as §1

[5] = test system: Enterobacter cloace 1321E; experiment: MIC by agar dilution, in vitro activity test; assay type: cell-based; conditions: 37° C., 18 to 20 hours, read-out: Minimal Inhibitory Concentration (MIC)
Experimental: as §1

[6] = test system: Streptococcus pyogenes 77A; experiment: MIC by agar dilution, in vitro activity test; assay type: cell-based; conditions: 37° C., 18 to 20 hours, read-out: Minimal Inhibitory Concentration (MIC)
Experimental: as §1

[7] = test system: Pseudomonas aeruginosa 9071; experiment: MIC by agar dilution, in vitro activity test; assay type: cell-based; conditions: 37° C., 18 to 20 hours, read-out: Minimal Inhibitory Concentration (MIC)
Experimental: as §1

[8] = test system: Streptococcus faecium MD 8b; experiment: MIC by agar dilution, in vitro activity test; assay type: cell-based; conditions: Enterococcus faecium, MD8B, read-out: Minimal Inhibitory Concentration (MIC)
Experimental: as §1

[9] = test system: Staphylococcus aureus 285; experiment: MIC by agar dilution, in vitro activity test; assay type: cell-based; conditions: 37° C., 18 to 20 hours, read-out: Minimal Inhibitory Concentration (MIC)
Experimental: as §1

[10] = test system: Staphylococcus aureus 503; experiment: MIC by agar dilution, in vitro activity test; assay type: cell-based; conditions: 37° C., 18 to 20 hours, read-out: Minimal Inhibitory Concentration (MIC)
Experimental: as §1

[11] = test system: Pseudomonas aeruginosa 1592E; experiment: MIC by agar dilution, in vitro activity test; assay type: cell-based; conditions: 37° C., 18 to 20 hours, read-out: Minimal Inhibitory Concentration (MIC)
Experimental: as §1

Escherichia coli DC 0 = experiment: MIC by agar dilution, in vitro activity test; assay type: cell-based; conditions: DC0, 37° C., 18 to 20 hours, read-out: Minimal Inhibitory Concentration (MIC)
Experimental: as §1

[12] = test system: Klebsiella aerogenes 1082E; experiment: MIC by agar dilution, in vitro activity test; assay type: cell-based; conditions: 37° C., 18 to 20 hours, read-out: Minimal Inhibitory Concentration (MIC)
Experimental: as §1

[13] = test system: Pseudomonas aeruginosa 9027; experiment: MIC by agar dilution, in vitro activity test; assay type: cell-based; conditions: 37° C., 18 to 20 hours, read-out: Minimal Inhibitory Concentration (MIC)
Experimental: as §1

[14] = test system: Streptococcus pyogenes 71A; experiment: MIC by agar dilution, in vitro activity test; assay type: cell-based; conditions: 37° C., 18 to 20 hours, read-out: Minimal Inhibitory Concentration (MIC)
Experimental: as §1

Enterobacter cloace P99 = experiment: MIC by agar dilution, in vitro activity test; assay type: cell-based; conditions: P99, 20 h, read-out: Minimal Inhibitory Concentration (MIC)
Experimental: as §1

Escherichia coli 1507E = experiment: MIC by agar dilution, in vitro activity test; assay type: cell-based; conditions: Escherichia coli 1507E; agar dilution, 37° C., 18 to 20 hours; read-out: Minimal Inhibitory Concentration (MIC)
Experimental: as §1

Acute toxicity study = assay type: in vivo; conditions: mouse, in vivo
Experimental: In order to illustrate usefulness of the compounds of the present invention, acute toxicity test of the compounds synthesized in the above Examples were carried out. Each dose of the compounds dissolved in saline and buffer solution (PH=7.0) was administered by intravenous or subcutaneous injection. Mortalities of the animals was recorded seven days latter.
.asterisk-pseud. Mouse: Male ICR strain, 4 weeks

[15] = test system: Staphylococcus aureus, Escherichia coli and Pseudomonas aeruginosa; experiment: MIC by agar dilution, comparison in words; assay type: cell-based; conditions: against Staphylococcus aureus, vs Cefotaxime
Experimental: as §1

[16] = iv, i.v, male ICR mouse, 4 weeks, mortality at seven days, read-out: LD50 i.v
[17] = iv, intravenous routes, read-out: acute toxicity in intravenous routes
[18] = sc, s.c, male ICR mouse, 4 weeks, mortality at seven days, read-out: LD50 s.c

SMILES	MIC [1] [µg/mL]	MIC (Salmonella typhimurium) [µg/mL]	MIC (Escherichia coli DC 2) [µg/mL]	MIC [2] [µg/mL]	MIC [3] [µg/mL]	MIC (Escherichia coli TEM) [µg/mL]	MIC [4] [µg/mL]	MIC (Escherichia coli 078) [µg/mL]	MIC [5] [µg/mL]	MIC [6] [µg/mL]	MIC ([8]; 20 h) [µg/mL]	MIC [9] [µg/mL]	MIC [10] [µg/mL]	MIC [11] [µg/mL]	MIC (Escherichia coli DC 0) [µg/mL]	MIC [12] [µg/mL]	MIC [13] [µg/mL]	MIC (Enterobacter cloace P99) [µg/mL]	MIC (Escherichia coli 1507E) [µg/mL]	LD50 at 168 h (Acute toxicity study; [16]) [mg/kg]	other results
CO/N=C(\C(=O)N[C@@H]1C(=O)N2C(C(=O)[O-])=C(C[n+]3cccc4c3CCC4)CS[C@H]12)c1csc(N)n1 [CPR, Cefpirome, reference compound]	3.1 (≈ 6.02 µM)	0.1 (≈ 0.194 µM)	0.1 (≈ 0.194 µM)	0.8 (≈ 1.55 µM)	0.8 (≈ 1.55 µM)	0.05 (≈ 0.0972 µM)	0.1 (≈ 0.194 µM)	0.025 (≈ 0.0486 µM)	0.025 (≈ 0.0486 µM)	0.012 (≈ 0.0233 µM)	100 (≈ 194 µM)	0.4 (≈ 0.777 µM)	0.8 (≈ 1.55 µM)	3.1 (≈ 6.02 µM)	0.012 (≈ 0.0233 µM)	6.3 (≈ 12.2 µM)	6.3 (≈ 12.2 µM)	3.1 (≈ 6.02 µM)	0.025 (≈ 0.0486 µM)		MIC [7]: 6.3 µg/mL (≈ 12.2 µM); MIC [14]: 0.012 µg/mL (≈ 0.0233 µM)
CO/N=C(\C(=O)N[C@@H]1C(=O)N2C(C(=O)[O-])=C(/C=C/C[N+](C)(C)Cc3nc[nH]c3C)CS[C@H]12)c1csc(N)n1 [Example 2, 7β-[(Z)-2-(2-aminothiazol-4-yl)-2-methoxyiminoacetamido]-3-[(E)-3-[(5-methylimidazol-4-yl)-methyldimethylammonio]-1-propen-1-yl]3-cephem-4-carboxylate]																				> 2000	LD50 at 168 h (Acute toxicity study; [17]): > 2000 mg/kg; LD50 at 168 h (Acute toxicity study; [18]): > 3000 mg/kg
CO/N=C(\C(=O)N[C@@H]1C(=O)N2C(C(=O)O)=C(COC(C)=O)CS[C@H]12)c1csc(N)n1 [CTX, Cefotaxime, reference compound]		0.1 (≈ 0.22 µM)	0.05 (≈ 0.11 µM)	0.4 (≈ 0.878 µM)	1.6 (≈ 3.51 µM)	0.05 (≈ 0.11 µM)	0.1 (≈ 0.22 µM)	0.025 (≈ 0.0549 µM)	0.05 (≈ 0.11 µM)	0.012 (≈ 0.0263 µM)	> 100	1.6 (≈ 3.51 µM)	3.1 (≈ 6.81 µM)	25 (≈ 54.9 µM)	0.012 (≈ 0.0263 µM)	6.3 (≈ 13.8 µM)	25 (≈ 54.9 µM)	> 100	0.025 (≈ 0.0549 µM)		MIC [7]: 25 µg/mL (≈ 54.9 µM); MIC [14]: 0.012 µg/mL (≈ 0.0263 µM)
CO/N=C(\C(=O)N[C@@H]1C(=O)N2C(C(=O)[O-])=C(/C=C/C[N+](C)(C)Cc3scnc3C)CS[C@H]12)c1csc(N)n1 [Example 1, 7β-[(Z)-2-(2-aminothiazol-4-yl)-2-methoxyiminoacetamido]-3-[(E)-3-[(4-methylthiazol-5-yl)-methyldimethylammonio]-1-propen-1-yl]3-cephem-4-carboxylate]	6.3 (≈ 10.9 µM)	0.1 (≈ 0.173 µM)	0.05 (≈ 0.0865 µM)	0.4 (≈ 0.692 µM)	0.4 (≈ 0.692 µM)	0.05 (≈ 0.0865 µM)	0.05 (≈ 0.0865 µM)	< 0.006	0.012 (≈ 0.0208 µM)	0.006 (≈ 0.0104 µM)		0.4 (≈ 0.692 µM)	0.8 (≈ 1.38 µM)	3.1 (≈ 5.37 µM)	0.025 (≈ 0.0433 µM)	6.3 (≈ 10.9 µM)	12.5 (≈ 21.6 µM)	0.4 (≈ 0.692 µM)	0.025 (≈ 0.0433 µM)	> 3000	MICs compared with Cefotaxime [15]: superior to that of Cefotaxime; MIC ([8]; Streptococcus faecium MD 8b, agar dilution, 37° C., 18 to 20 hours): 50 µg/mL (≈ 86.5 µM); LD50 at 168 h (Acute toxicity study; [17]): > 2000 mg/kg; LD50 at 168 h (Acute toxicity study; [18]): > 4000 mg/kg; LD50 at 168 h (Acute toxicity study; sc, subcutaneous routes, read-out: acute toxicity in subcutaneous routes): > 3000 mg/kg
CC[N+](C)(CC=CC(N)=O)C/C=C/C1=C(C(=O)[O-])N2C(=O)[C@@H](NC(=O)/C(=N\OC)c3csc(N)n3)[C@H]2SC1 (stereo partly drawn) [Example 6, 7β-[(Z)-2-(2-aminothiazol-4-yl)-2-methoxyiminoacetamido]-3-[(E)-3-[(1-carbamoyl-1-propen-3-yl)-3-ethylmethylammonio]-1-propen-1-yl]3-cephem-4-carboxylate]	3.1 (≈ 5.5 µM)	0.1 (≈ 0.177 µM)	0.05 (≈ 0.0887 µM)	0.4 (≈ 0.71 µM)	0.8 (≈ 1.42 µM)	0.05 (≈ 0.0887 µM)	0.1 (≈ 0.177 µM)	0.12 (≈ 0.213 µM)	0.025 (≈ 0.0444 µM)	0.012 (≈ 0.0213 µM)	> 100	0.4 (≈ 0.71 µM)	0.8 (≈ 1.42 µM)	3.1 (≈ 5.5 µM)	< 0.006	3.1 (≈ 5.5 µM)	6.3 (≈ 11.2 µM)	1.6 (≈ 2.84 µM)	0.05 (≈ 0.0887 µM)	> 3000	MICs compared with Cefotaxime [15]: superior to that of Cefotaxime; LD50 at 168 h (Acute toxicity study; [17]): > 2000 mg/kg; LD50 at 168 h (Acute toxicity study; [18]): > 3000 mg/kg
